Results: the NIST ThermoML archive (doi:10.1016/j.tca.2015.06.017)
± gives the expanded uncertainty stated by the source.

Experiment: xn = mol fraction of the nth substance listed
Settings: Liquid, Vibrating tube method

## CC(C)(C)Cl [2-chloro-2-methylpropane] + CCCCCCC
303.15 K, 50000 kPa, x2 = 0.2004
  mass density: 840.18 ± 0.54 kg/m3
303.15 K, 50000 kPa, x2 = 0.3016
  mass density: 820.14 ± 0.58 kg/m3
303.15 K, 50000 kPa, x2 = 0.4097
  mass density: 800.42 ± 0.62 kg/m3
303.15 K, 50000 kPa, x2 = 0.498
  mass density: 785.33 ± 0.65 kg/m3
303.15 K, 50000 kPa, x2 = 0.5983
  mass density: 769.3 ± 0.68 kg/m3
303.15 K, 50000 kPa, x2 = 0.7017
  mass density: 753.99 ± 0.72 kg/m3
303.15 K, 50000 kPa, x2 = 0.7995
  mass density: 740.47 ± 0.74 kg/m3
303.15 K, 50000 kPa, x2 = 0.9032
  mass density: 727.09 ± 0.77 kg/m3
303.15 K, 50000 kPa, x2 = 0.9482
  mass density: 721.65 ± 0.78 kg/m3
303.15 K, 60000 kPa, x2 = 0.0554
  mass density: 879.84 ± 0.51 kg/m3
303.15 K, 60000 kPa, x2 = 0.1017
  mass density: 869.24 ± 0.54 kg/m3
303.15 K, 60000 kPa, x2 = 0.2004
  mass density: 847.92 ± 0.59 kg/m3
303.15 K, 60000 kPa, x2 = 0.3016
  mass density: 827.68 ± 0.63 kg/m3
303.15 K, 60000 kPa, x2 = 0.4097
  mass density: 807.57 ± 0.68 kg/m3
303.15 K, 60000 kPa, x2 = 0.498
  mass density: 792.31 ± 0.72 kg/m3
303.15 K, 60000 kPa, x2 = 0.5983
  mass density: 776.11 ± 0.76 kg/m3
303.15 K, 60000 kPa, x2 = 0.7017
  mass density: 760.58 ± 0.8 kg/m3
303.15 K, 60000 kPa, x2 = 0.7995
  mass density: 746.99 ± 0.83 kg/m3
303.15 K, 60000 kPa, x2 = 0.9032
  mass density: 733.41 ± 0.86 kg/m3
303.15 K, 60000 kPa, x2 = 0.9482
  mass density: 727.85 ± 0.87 kg/m3
303.15 K, 65000 kPa, x2 = 0.0554
  mass density: 883.64 ± 0.53 kg/m3
303.15 K, 65000 kPa, x2 = 0.1017
  mass density: 872.96 ± 0.55 kg/m3
303.15 K, 65000 kPa, x2 = 0.2004
  mass density: 851.56 ± 0.61 kg/m3
303.15 K, 65000 kPa, x2 = 0.3016
  mass density: 831.16 ± 0.66 kg/m3
303.15 K, 65000 kPa, x2 = 0.4097
  mass density: 810.96 ± 0.71 kg/m3
303.15 K, 65000 kPa, x2 = 0.498
  mass density: 795.68 ± 0.75 kg/m3
303.15 K, 65000 kPa, x2 = 0.5983
  mass density: 779.38 ± 0.79 kg/m3
303.15 K, 65000 kPa, x2 = 0.7017
  mass density: 763.77 ± 0.83 kg/m3
303.15 K, 65000 kPa, x2 = 0.7995
  mass density: 749.98 ± 0.87 kg/m3
303.15 K, 65000 kPa, x2 = 0.9032
  mass density: 736.38 ± 0.9 kg/m3
303.15 K, 65000 kPa, x2 = 0.9482
  mass density: 730.82 ± 0.92 kg/m3
313.15 K, 100 kPa, x2 = 0.0554
  mass density: 806.66 ± 0.24 kg/m3
313.15 K, 100 kPa, x2 = 0.1017
  mass density: 797.28 ± 0.24 kg/m3
313.15 K, 100 kPa, x2 = 0.2004
  mass density: 778.36 ± 0.24 kg/m3
313.15 K, 100 kPa, x2 = 0.3016
  mass density: 760.35 ± 0.24 kg/m3
313.15 K, 100 kPa, x2 = 0.4097
  mass density: 742.58 ± 0.24 kg/m3
313.15 K, 100 kPa, x2 = 0.498
  mass density: 729.11 ± 0.25 kg/m3
313.15 K, 100 kPa, x2 = 0.5983
  mass density: 714.88 ± 0.25 kg/m3
313.15 K, 100 kPa, x2 = 0.7017
  mass density: 701.3 ± 0.25 kg/m3
313.15 K, 100 kPa, x2 = 0.7995
  mass density: 689.36 ± 0.25 kg/m3
313.15 K, 100 kPa, x2 = 0.9032
  mass density: 677.52 ± 0.25 kg/m3
313.15 K, 100 kPa, x2 = 0.9482
  mass density: 672.6 ± 0.25 kg/m3
313.15 K, 2000 kPa, x2 = 0.0554
  mass density: 809.52 ± 0.25 kg/m3
313.15 K, 2000 kPa, x2 = 0.1017
  mass density: 800.05 ± 0.25 kg/m3
313.15 K, 2000 kPa, x2 = 0.2004
  mass density: 781 ± 0.26 kg/m3
313.15 K, 2000 kPa, x2 = 0.3016
  mass density: 763.03 ± 0.26 kg/m3
313.15 K, 2000 kPa, x2 = 0.4097
  mass density: 745.07 ± 0.26 kg/m3
313.15 K, 2000 kPa, x2 = 0.498
  mass density: 731.68 ± 0.26 kg/m3
313.15 K, 2000 kPa, x2 = 0.5983
  mass density: 717.4 ± 0.27 kg/m3
313.15 K, 2000 kPa, x2 = 0.7017
  mass density: 703.64 ± 0.27 kg/m3
313.15 K, 2000 kPa, x2 = 0.7995
  mass density: 691.69 ± 0.27 kg/m3
313.15 K, 2000 kPa, x2 = 0.9032
  mass density: 679.76 ± 0.27 kg/m3
313.15 K, 2000 kPa, x2 = 0.9482
  mass density: 674.8 ± 0.27 kg/m3
313.15 K, 5000 kPa, x2 = 0.0554
  mass density: 813.98 ± 0.27 kg/m3
313.15 K, 5000 kPa, x2 = 0.1017
  mass density: 804.42 ± 0.28 kg/m3
313.15 K, 5000 kPa, x2 = 0.2004
  mass density: 785.28 ± 0.28 kg/m3
313.15 K, 5000 kPa, x2 = 0.3016
  mass density: 767.03 ± 0.29 kg/m3
313.15 K, 5000 kPa, x2 = 0.4097
  mass density: 749.04 ± 0.29 kg/m3
313.15 K, 5000 kPa, x2 = 0.498
  mass density: 735.25 ± 0.29 kg/m3
313.15 K, 5000 kPa, x2 = 0.5983
  mass density: 720.98 ± 0.3 kg/m3
313.15 K, 5000 kPa, x2 = 0.7017
  mass density: 707.1 ± 0.3 kg/m3
313.15 K, 5000 kPa, x2 = 0.7995
  mass density: 695.02 ± 0.31 kg/m3
313.15 K, 5000 kPa, x2 = 0.9032
  mass density: 682.92 ± 0.31 kg/m3
313.15 K, 5000 kPa, x2 = 0.9482
  mass density: 677.95 ± 0.31 kg/m3
313.15 K, 7000 kPa, x2 = 0.0554
  mass density: 816.75 ± 0.29 kg/m3
313.15 K, 7000 kPa, x2 = 0.1017
  mass density: 807.19 ± 0.29 kg/m3
313.15 K, 7000 kPa, x2 = 0.2004
  mass density: 787.92 ± 0.3 kg/m3
313.15 K, 7000 kPa, x2 = 0.3016
  mass density: 769.57 ± 0.3 kg/m3
313.15 K, 7000 kPa, x2 = 0.4097
  mass density: 751.4 ± 0.31 kg/m3
313.15 K, 7000 kPa, x2 = 0.498
  mass density: 737.68 ± 0.31 kg/m3
313.15 K, 7000 kPa, x2 = 0.5983
  mass density: 723.34 ± 0.32 kg/m3
313.15 K, 7000 kPa, x2 = 0.7017
  mass density: 709.4 ± 0.32 kg/m3
313.15 K, 7000 kPa, x2 = 0.7995
  mass density: 697.26 ± 0.33 kg/m3
313.15 K, 7000 kPa, x2 = 0.9032
  mass density: 685.15 ± 0.33 kg/m3
313.15 K, 7000 kPa, x2 = 0.9482
  mass density: 680.11 ± 0.33 kg/m3
313.15 K, 10000 kPa, x2 = 0.0554
  mass density: 820.74 ± 0.31 kg/m3
313.15 K, 10000 kPa, x2 = 0.1017
  mass density: 811.13 ± 0.31 kg/m3
313.15 K, 10000 kPa, x2 = 0.2004
  mass density: 791.72 ± 0.32 kg/m3
313.15 K, 10000 kPa, x2 = 0.3016
  mass density: 773.41 ± 0.33 kg/m3
313.15 K, 10000 kPa, x2 = 0.4097
  mass density: 754.97 ± 0.34 kg/m3
313.15 K, 10000 kPa, x2 = 0.498
  mass density: 741.18 ± 0.34 kg/m3
313.15 K, 10000 kPa, x2 = 0.5983
  mass density: 726.57 ± 0.35 kg/m3
313.15 K, 10000 kPa, x2 = 0.7017
  mass density: 712.75 ± 0.36 kg/m3
313.15 K, 10000 kPa, x2 = 0.7995
  mass density: 700.32 ± 0.36 kg/m3
313.15 K, 10000 kPa, x2 = 0.9032
  mass density: 688.14 ± 0.37 kg/m3
313.15 K, 10000 kPa, x2 = 0.9482
  mass density: 683.1 ± 0.37 kg/m3
313.15 K, 20000 kPa, x2 = 0.0554
  mass density: 833.07 ± 0.37 kg/m3
313.15 K, 20000 kPa, x2 = 0.1017
  mass density: 823.38 ± 0.37 kg/m3
313.15 K, 20000 kPa, x2 = 0.2004
  mass density: 803.53 ± 0.39 kg/m3
313.15 K, 20000 kPa, x2 = 0.3016
  mass density: 784.77 ± 0.4 kg/m3
313.15 K, 20000 kPa, x2 = 0.4097
  mass density: 766.04 ± 0.42 kg/m3
